Data from US20250186379A1, “METHODS AND AGENTS FOR DECREASING INSULIN RESISTANCE” (Whitehead Institute for Biomedical Research, priority 2021, published 2025).
“Also recorded” adds a separate entry of the source.

Tested on: IR condensates
Test: tc-PALM of IR cluster/condensate dynamics in HepG2 cells expressing IR-Dendra2
Format: cell-based, human
Protocol: Widefield Live-cell super-resolution imaging was performed in a photo-activation localization microscopy (PALM) approach using a Nikon Eclipse Ti microscope with a 100× oil immersion objective. The 405 nm and 561 nm laser beams were combined in an external platform with customized power densities to image Dendra2-tagged molecules as previously reported (56). Cells were maintained at 37° C. in a temperature-controlled platform during imaging, and the CO2 level was maintained at 5% by Leibovitz's L-15 Medium with no phenol red (ThermoFisher #21083027). In each imaging cycle, a 2400-frame video stream including a (256 pixel)2 region of interest (ROI) was recorded in 20 Hz acquisition rate with the EM-gain setting as 1000 on an Andor iXon Ultra 897 EMCCD. Each pixel conjugates with a (160 nm)2 area on the sample side. After PALM imaging, the Hoechst-stained nuclei of the same ROI were imaged with stronger 405 nm excitation through DAPI filter.
Detection localization. For each frame of a raw image, Gaussian particles were identified by pixelwise test of hypotheses, whose peak positions were individually fitted at subpixel resolution by maximum-likelihood regression with Gauss-Newton method (91). An additional deflation loop was performed to avoid missing dimmer particles when they were overshadowed by neighboring brighter ones. This multi-particle detection localization procedure has been integrated in a published, open-source MATLAB software called MTT (91).
Spatial clustering. DBSCAN and “manual selection” hybridized approach was applied to group spatially clustered detections via the qSR software (92). Firstly, DBSCAN was performed to generalize a proposal map of spatially clustered detections. Given that IR condensates can be tiny and transient, a “loose” parameter setting was used when performing the DBSCAN (length-scale=120 nm, N_min=4). This parameter combination was determined by comparing the rendered super-resolved reconstructions with the color-coded cluster maps until the clustering results visually make sense for most ROIs. Secondly, individual clusters were manually selected based on the clustering proposal map from last step. Some custom MATLAB code was used to reconstruct the IR distribution of each ROI superposed with the corresponding nuclei image, which was further cross-compared with the corresponding cluster map to determine which region each cluster belongs to (i.e., plasma-membrane, cytoplasm, or nucleus).
Temporal clustering. For each spatial cluster, time-correlated PALM (tc-PALM) analysis was performed along the time axis to extract the truly colocalized, time-correlated multimolecule bursting events (11, 13-14). The lifetime of a burst is simply defined as the timespan from the first to the last detections. More details about the quantitative validations and statistics of tc-PALM analysis can be found in NOTES and FIG. 11.
Widefield, live-cell, super-resolution imaging was performed in a photo-activation localization microscopy (PALM) approach using a Nikon Eclipse Ti microscope with a 100× oil immersion objective. The 405 nm and 561 nm laser beams were combined in an external platform with customized power densities to image Dendra2-tagged molecules as previously reported^24. Cells were cultured on imaging dishes (MatTek, P35G-1.5-20-C) and then imaged while maintaining both the temperature at 37° C. with a temperature-controlled platform and the level of CO2 at 5% with Leibovitz's L-15 Medium with no phenol red (Thermo Fisher, 21083027). During each imaging cycle, a 2400-frame video stream including a (256 pixel)^2 region of interest (ROI) was recorded in 20 Hz acquisition rate with the EM-gain setting as 1000 on an Andor iXon Ultra 897 EMCCD. Each pixel conjugates with a (160 nm)^2 area on the sample side. After PALM imaging, the Hoechst-stained nuclei of the same ROI were imaged using a stronger 405 nm excitation through DAPI filter. […] Following a 5-minute wait, the cells were imaged for 15-20 minutes.

[1] = insulin resistant (3 nM insulin) versus sensitive (0.1 nM) cells
[2] = insulin sensitive cells, 3 nM insulin 5 min

Compound: TNFα
- IR dynamics in condensates (HepG2 IR-Dendra2 cells, pathological TNFα or high nutrients (FIGS. 36A-36B)): decreased IR dynamics in condensates

Compound: insulin: insulin (Sigma Aldrich, I9278-5ML) used for acute stimulation and chronic physiological or pathological exposure
- average number of IR-Dendra2 detections per cluster (entire cells, insulin-stimulated (3 nM, 5 min), 22 (range 4-609) in unstimulated cells): 27 (range 4-539)
- increase of percentage of long-lived IR clusters, cytoplasm [1]: 1.4 fold
- increase of percentage of long-lived IR clusters, nucleus [1]: 3.6 fold
- number of IR clusters in the cytoplasm and nucleus [2]: produced an increase; also recorded: resulted in an increase
- number of IR molecules / IR detections in clusters [2]: an increase in the number of IR molecules in these clusters; also recorded: an increase in the number of IR detections in clusters
- average number of IR molecules per cluster, nucleus (insulin stimulated cells (3 nM, 5 min), 9 (2-46) in unstimulated cells): 14 (2-283)
- average number of IR molecules per cluster, cytoplasm (insulin stimulated cells (3 nM, 5 min), 14 (2-264) in unstimulated cells): 19 (2-295)
- percentage of long-lived IR condensates in the plasma membrane, cytoplasm and nucleus (insulin-resistant (3 nM insulin) versus sensitive cells (FIG. 18B)): also increased
- average lifetime of short-lived IR clusters, nucleus (pathologic insulin (3 nM), insulin resistant cells, 5.9 s in sensitive cells (FIG. 4B)): 16 s
- average lifetime of short-lived IR clusters, cytoplasm (pathologic insulin (3 nM), insulin resistant cells, 9.8 s in sensitive cells (FIG. 4B)): 13.2 s
- average lifetime of short-lived IR condensates, plasma membrane (pathologic insulin (3 nM), insulin-resistant cells, 6.8 s in sensitive cells (FIG. 18B)): 11.8 s
- average lifetime of short-lived IR condensates, nucleus (pathologic insulin (3 nM), insulin-resistant cells, 7.0 s in sensitive cells (FIG. 18B)): 12.9 s
- average lifetime of short-lived IR condensates, cytoplasm (pathologic insulin (3 nM), insulin-resistant cells, 10.0 s in sensitive cells (FIG. 18B)): 15.8 s

Compound: CN(C)C(=N)N=C(N)N [metformin, reference compound]
- IR condensate lifetimes in the plasma membrane, cytoplasm and nucleus (insulin-resistant cells, 12.5 μM metformin, after insulin washout (FIG. 18B)): rescued condensate lifetimes in the plasma membrane, cytoplasm and nucleus to times that were similar to those in insulin-sensitive cells
- IR condensate lifetime in insulin-sensitive cells (insulin-sensitive HepG2 IR-Dendra2 cells, 12.5 μM metformin for 1 day (FIG. 37)): did not decrease IR condensate lifetime; also recorded: does not decrease IR condensate lifetime
- IR cluster lifetimes in the cytoplasm and nucleus (metformin-treated insulin resistant cells (FIG. 5C), no acute insulin stimulation): reduced cluster lifetimes in the cytoplasm and nucleus to times that were similar to those in insulin sensitive cells
- IR cluster lifetimes in the plasma membrane (metformin-treated insulin resistant cells, 12.5 M metformin as printed (FIG. 5C), no acute insulin stimulation): little effect
- frequency of nuclear IR clusters with 0-25 s lifetimes (metformin-treated resistant cells vs resistant cells (FIG. 5C)): increased
- frequency of plasma membrane and nuclear IR condensates with 0-13 s lifetimes (metformin-treated resistant cells vs resistant cells (FIG. 18B)): increased
- IR clusters in the cytoplasm with a lifetime of 0-25 s (metformin-treated resistant cells, ~40% in insulin resistant cells (FIG. 5C)): ~60%
- IR condensates in the cytoplasm with a lifetime of 0-13 s (metformin-treated resistant cells, ~40% in insulin-resistant cells (FIG. 18B)): ~60%
